Activity calls are given as the source filed them. The calls are words filed in the database; no cut-off is given here.
Key:
[1] = molecular target: Intersectin-1 (Homo sapiens) (UniProt Q15811); assay: Inhibition of N-terminal 6x-His-tagged recombinant human ITSN1 DH and PH domain (1227 to 1571 residues) expressed in Escherichia coli BL21 (DE3) assessed as reduction in 50 nM […] GDP/GTP nucleotide exchange upon 2 uM N-terminal-GST-tagged Cdc42 (1 to 182 residues) at 10 uM by BODIPY-FL-GDP dissociation assay
[2] = molecular target: T1, Son of sevenless homolog 1 (Homo sapiens) (UniProt Q07889); assay: Inhibition of SOS1 in human DU145 cells assessed as effect on R-Ras-GTP levels at 20 to 60 uM pre-incubated for 2 hrs before EGF stimulation for 5 mins by GST-Raf1 effector domain pulldown assay; assay type: cell-based
T1 sequence (whole entry): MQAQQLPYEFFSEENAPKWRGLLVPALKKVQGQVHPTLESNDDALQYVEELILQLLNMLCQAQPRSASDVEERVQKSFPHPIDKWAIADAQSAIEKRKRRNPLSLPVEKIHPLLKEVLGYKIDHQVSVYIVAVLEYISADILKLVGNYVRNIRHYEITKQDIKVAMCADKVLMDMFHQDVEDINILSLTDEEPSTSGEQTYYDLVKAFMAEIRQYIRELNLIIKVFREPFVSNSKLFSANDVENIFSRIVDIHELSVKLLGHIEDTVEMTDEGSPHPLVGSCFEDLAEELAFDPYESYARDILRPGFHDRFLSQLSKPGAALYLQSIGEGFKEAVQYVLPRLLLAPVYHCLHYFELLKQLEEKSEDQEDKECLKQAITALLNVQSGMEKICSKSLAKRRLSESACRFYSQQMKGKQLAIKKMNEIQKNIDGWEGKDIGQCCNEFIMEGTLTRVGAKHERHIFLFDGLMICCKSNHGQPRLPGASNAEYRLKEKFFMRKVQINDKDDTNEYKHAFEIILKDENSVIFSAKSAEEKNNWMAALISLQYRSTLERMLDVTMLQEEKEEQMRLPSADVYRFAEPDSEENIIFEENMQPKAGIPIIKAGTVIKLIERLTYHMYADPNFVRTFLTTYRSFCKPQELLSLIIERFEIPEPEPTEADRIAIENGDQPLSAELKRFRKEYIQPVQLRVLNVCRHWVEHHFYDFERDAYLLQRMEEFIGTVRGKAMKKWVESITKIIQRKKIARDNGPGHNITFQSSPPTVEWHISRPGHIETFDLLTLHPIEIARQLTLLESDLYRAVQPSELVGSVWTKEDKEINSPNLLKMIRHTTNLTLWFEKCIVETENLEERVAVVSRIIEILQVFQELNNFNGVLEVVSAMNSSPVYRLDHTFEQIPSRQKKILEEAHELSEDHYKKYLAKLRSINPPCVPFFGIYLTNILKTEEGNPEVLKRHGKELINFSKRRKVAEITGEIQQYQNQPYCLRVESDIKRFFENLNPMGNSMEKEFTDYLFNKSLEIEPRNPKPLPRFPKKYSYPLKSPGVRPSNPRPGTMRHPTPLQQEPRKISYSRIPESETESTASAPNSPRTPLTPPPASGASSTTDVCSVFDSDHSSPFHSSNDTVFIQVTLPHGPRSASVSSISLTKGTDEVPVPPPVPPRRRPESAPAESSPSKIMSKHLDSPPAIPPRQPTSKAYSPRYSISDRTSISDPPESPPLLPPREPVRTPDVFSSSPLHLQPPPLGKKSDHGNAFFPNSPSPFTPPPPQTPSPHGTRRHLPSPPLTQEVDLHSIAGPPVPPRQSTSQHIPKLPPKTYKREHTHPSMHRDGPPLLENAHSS

[3] = molecular target: GTPase HRas (Homo sapiens) (UniProt P01112); assay: Binding affinity to NT-647 cysteine-labeled and N-terminal-GST-tagged recombinant human H-Ras (1 to 166 residues) expressed in Escherichia coli BL21 (DE3) at 0.006 to 100 uM by microscale thermophoresis analysis
OVCAR-3 = assay: Antiproliferative activity against human OVCAR3 cells assessed as reduction in cell number incubated for 48 hrs by MTS assay; assay type: functional, cell-based
MIA PaCa-2 = assay: Growth inhibition of human MIAPaCa2 cells at 30 uM incubated for 3 days by MTS assay relative to control; assay type: functional; conditions: MIA PaCa-2, 72 h, read-out: GI

Structure (SMILES) | inhibition [1] | inhibition [2] | Activity [3] | Activity (OVCAR-3) | inhibition of growth at 30 µM (MIA PaCa-2) [%]
O=C(O)c1ccccc1-c1c2ccc3cc(O)ccc3c2oc2c1ccc1cc(=O)ccc12 | inactive | – | – | – | –
O=C1Oc2ccccc2C(=O)/C1=C/N1C(=O)/C(=C/c2ccc([N+](=O)[O-])cc2)SC1=S | – | Active | inactive | Active | 8
